From patent US9713613B2, “Methods and compositions for the treatment of cancer and related hyperproliferative disorders” (priority 2007, dated 2017) come the findings set out here.

Structures are written as SMILES.

The subject of one test is PLAP-BP2. The test is described as follows: PLAP-BP2 cleavage assay in CHO-K1 cells. The format is cell-based, Chinese hamster. The note with it: 20 μM. From the text: To determine if fatostatin affects the ER-Golgi translocation and proteolytic processing of SREBPs, a reporter assay developed by Sakai et al. (1998) was used. PLAP-BP2 in transfected CHO-K1 cells remains membrane-bound unless it is cleaved by S1P in the Golgi and secreted into the culture medium. In the assay, a secreted alkaline phosphatase, fused with an SREBP-2 fragment lacking the NH2-terminal DNA-binding domain (PLAP-BP2513-1141), permits monitoring of translocation and processing through changes in the fluorescence of a fluorogenic phosphatase substrate (FIG. 18C). When cells were co-transfected with plasmids encoding PLAP-BP2513-1141 and SCAP, PLAP phosphatase was secreted, generating fluorescence signals. […] The fatostatin-mediated inhibition of SREBP activation was confirmed by western blot analysis of SREBPs. […] Similar results were obtained for SREBP-1 (FIG. 22).
PLAP-BP2 Cleavage. On day 0, CHO-K1 cells were plated out onto a 96-well plate in medium A. On day 2, the cells were transiently co-transfected with pCMV-PLAP-BP2(513-1141), pCMV-SCAP and pAc-β-gal, using Lipofectamine reagent (Invitrogen). […]

The test system of a further test is RPMI8226 cells. The test is described as follows: RPMI8226 cell growth, MTT assay. The class given is cell-based, human. As to conditions: 5 μM, 48 hours. How it is done: 10,000 MOLT-4 cells (FIGS. 35A-35C) and 20,000 RPM18226 cells (FIGS. 35D-35F) were seeded onto 96 well plate in RPMI 1640 medium containing 5% FBS or fat-free charcoal treated serum (FF-FBS) for 24 hours at 37 C. MOLT-4 and RPM18226 cells were treated for additional 48 hours with different concentrations of compound 19 (None control without DMSO, Vehicle with DMSO, 1, 2, 5, 10 and 20 μM in DMSO; RPM18226 cells also were treated with 3 μM in DMSO). At the end of 48 hours cells were subjected to MTT assay to determine viability. Values are depicted as means±SD; *P<0.05.
20,000 MOLT-4 cells (FIGS. 36A-36C) and 20,000 RPM18226 cells (FIGS. 36D-36F) cells were seeded onto 96 well plates in RPMI 1640 Medium containing 5% Fetal bovine serum (FBS) or 5% fat free charcoal treated serum (FF-FBS) for 24 hours at 37 C. Cells then were treated for additional 48 hours with different concentrations of compound 17 (None control without DMSO, Vehicle with DMSO, 1, 2, 3, 5, 10 and 20 μM in DMSO). At the end of the 48 hours treatment cells were subjected to MTT assay to determine viability. Values are depicted as means±SD (n=3); **P<0.001; ***P<0.0001.
RPM18226 cells were grown under the same conditions as the MOLT-4 cells. 20,000 cells were seeded into 96 well plates for 24 hrs prior to treatment with increasing concentrations of compound 19 as described for MOLT-4 cells. […]

Regarding `CCCc1cc(-c2nc(-c3ccc(C)cc3)cs2)ccn1` [Compound 1, 2-propyl-4-(4-p-tolylthiazol-2-yl)pyridine], the “secretion of PLAP phosphatase (PLAP-BP2 cleavage)” value with PLAP-BP2 was “decreased”.

Consider `CCCc1cc(-c2nc(-c3ccc(NS(C)(=O)=O)cc3)cs2)ccn1` [Compound 19, N-(4-(2-(2-propylpyridin-4-yl)thiazol-4-yl)phenyl)methanesulfonamide], for which the “growth inhibition in 5% FF FBS relative to 5% FBS” value in the test with RPMI8226 cells is “about 1.5”.
